According to ChEMBL document CHEMBL1201862, “PubChem BioAssay data set” (2004):
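Results reflect a 48-hour exposure of cells in 96-well plates to compound at five concentrations. Abbreviation: GI50, concentration required for 50% inhibition of growth.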 Active and inactive are the calls of the source. No stated cut-off is given here; in the data, active = GI50 up to about 1.1 µM and inactive = higher.

Assays:
Experiment in all cases: NCI anticancer screen, dose series, 48 h
BT-549 = tested on: BT-549
CAKI-1 = tested on: CAKI-1
TK-10 = tested on: TK-10
MDA-N = tested on: MDA-N
SNB-19 = tested on: SNB-19
NCI-H522 = tested on: NCI-H522
HT-29 = tested on: HT-29
HL-60 = tested on: HL-60
MDA-MB-435 = tested on: MDA-MB-435
HCT-116 = tested on: HCT-116
HCT-15 = tested on: HCT-15
NCI/ADR-RES = tested on: NCI/ADR-RES
KM12 = tested on: KM12
Hs-578T = tested on: Hs-578T
NCI-H460 = tested on: NCI-H460
OVCAR-3 = tested on: OVCAR-3
A549 = tested on: A549
SK-OV-3 = tested on: SK-OV-3
M14 = tested on: M14

CC1C2CC(C(S(=O)(=O)N3CCOCC3)/C2=N\O)C1(C)C (configuration not stated)
GI50 (BT-549): > 100 µM (inactive)
GI50 (CAKI-1): > 100 µM (inactive)
GI50 (TK-10): > 100 µM (inactive)
GI50 (MDA-N): > 100 µM (inactive)
GI50 (SNB-19): > 100 µM (inactive)
GI50 (NCI-H522): > 100 µM (inactive)
GI50 (HT-29): > 100 µM (inactive)
GI50 (HL-60): > 100 µM (inactive)
GI50 (MDA-MB-435): > 100 µM (inactive)
GI50 (HCT-116): > 100 µM (inactive)
GI50 (HCT-15): > 100 µM
GI50 (NCI/ADR-RES): > 100 µM (inactive)
GI50 (KM12): > 100 µM (inactive)
GI50 (Hs-578T): > 100 µM (inactive)
GI50 (NCI-H460): > 100 µM (inactive)
GI50 (OVCAR-3): > 100 µM (inactive)
GI50 (A549): > 100 µM (inactive)
GI50 (SK-OV-3): > 100 µM (inactive)
GI50 (M14): > 100 µM (inactive)

C=CC(O)(CBr)CCC(Br)C(=C)C (configuration not stated)
GI50 (BT-549): > 10 µM (inactive)
GI50 (CAKI-1): > 10 µM (inactive)
GI50 (TK-10): > 10 µM (inactive)
GI50 (MDA-N): > 10 µM (inactive)
GI50 (SNB-19): > 10 µM (inactive)
GI50 (NCI-H522): > 10 µM (inactive)
GI50 (HT-29): > 10 µM (inactive)
GI50 (HL-60): > 10 µM (inactive)
GI50 (MDA-MB-435): > 10 µM (inactive)
GI50 (HCT-116): > 10 µM (inactive)
GI50 (HCT-15): > 10 µM
GI50 (NCI/ADR-RES): > 10 µM (inactive)
GI50 (KM12): > 10 µM (inactive)
GI50 (Hs-578T): > 10 µM (inactive)
GI50 (NCI-H460): > 10 µM (inactive)
GI50 (OVCAR-3): > 10 µM (inactive)
GI50 (A549): > 10 µM (inactive)
GI50 (SK-OV-3): > 10 µM (inactive)
GI50 (M14): > 10 µM (inactive)

COC(=O)c1ccc(/C=C2\Cc3ccccc3C2=O)cc1
GI50 (BT-549): > 100 µM (inactive)
GI50 (CAKI-1): > 100 µM (inactive)
GI50 (TK-10): > 100 µM (inactive)
GI50 (MDA-N): > 100 µM (inactive)
GI50 (SNB-19): > 100 µM (inactive)
GI50 (NCI-H522): > 100 µM (inactive)
GI50 (HT-29): > 100 µM (inactive)
GI50 (HL-60): > 100 µM (inactive)
GI50 (MDA-MB-435): > 100 µM (inactive)
GI50 (HCT-116): > 100 µM (inactive)
GI50 (HCT-15): > 100 µM
GI50 (NCI/ADR-RES): > 100 µM (inactive)
GI50 (KM12): > 100 µM (inactive)
GI50 (Hs-578T): > 100 µM (inactive)
GI50 (NCI-H460): > 100 µM (inactive)
GI50 (OVCAR-3): > 100 µM (inactive)
GI50 (A549): > 100 µM (inactive)
GI50 (SK-OV-3): > 100 µM (inactive)
GI50 (M14): > 100 µM (inactive)

COC(=O)[C@]12CC[C@H]3CN(S(=O)(=O)c4ccc(C)cc4)[C@H]([C@H]31)[C@H](c1ccco1)N2S(=O)(=O)c1ccc(C)cc1
GI50 (BT-549): 30.1 µM (inactive)
GI50 (CAKI-1): 38.1 µM (inactive)
GI50 (TK-10): 56.5 µM (inactive)
GI50 (MDA-N): 24.7 µM (inactive)
GI50 (SNB-19): > 100 µM (inactive)
GI50 (NCI-H522): 29.9 µM (inactive)
GI50 (HT-29): 38.8 µM (inactive)
GI50 (HL-60): 30.2 µM (inactive)
GI50 (MDA-MB-435): 22.9 µM (inactive)
GI50 (HCT-116): 27.2 µM (inactive)
GI50 (HCT-15): 34 µM
GI50 (NCI/ADR-RES): 29 µM (inactive)
GI50 (KM12): 32.9 µM (inactive)
GI50 (Hs-578T): > 100 µM (inactive)
GI50 (NCI-H460): 35.8 µM (inactive)
GI50 (OVCAR-3): 56.2 µM (inactive)
GI50 (A549): 31.2 µM (inactive)
GI50 (SK-OV-3): > 100 µM (inactive)
GI50 (M14): 26.8 µM (inactive)

COc1cc(C2SC(=N)Nc3c2c(C)nn3C(=O)c2ccc(Cl)cc2)cc(OC)c1OC (configuration not stated)
GI50 (BT-549): > 10 µM (inactive)
GI50 (CAKI-1): > 10 µM (inactive)
GI50 (TK-10): > 10 µM (inactive)
GI50 (MDA-N): > 10 µM (inactive)
GI50 (SNB-19): > 10 µM (inactive)
GI50 (NCI-H522): > 10 µM (inactive)
GI50 (HT-29): > 10 µM (inactive)
GI50 (HL-60): > 10 µM (inactive)
GI50 (MDA-MB-435): > 10 µM (inactive)
GI50 (HCT-116): > 10 µM (inactive)
GI50 (HCT-15): > 10 µM
GI50 (NCI/ADR-RES): > 10 µM (inactive)
GI50 (KM12): > 10 µM (inactive)
GI50 (Hs-578T): > 10 µM (inactive)
GI50 (NCI-H460): > 10 µM (inactive)
GI50 (OVCAR-3): > 10 µM (inactive)
GI50 (A549): > 10 µM (inactive)
GI50 (SK-OV-3): > 10 µM (inactive)
GI50 (M14): > 10 µM (inactive)

COc1cc(OC)c2c(c1)OC(c1cccnc1)C(c1ccccc1)C2=O (configuration not stated)
GI50 (BT-549): > 100 µM (inactive)
GI50 (CAKI-1): 74.8 µM (inactive)
GI50 (TK-10): > 100 µM (inactive)
GI50 (MDA-N): 42.7 µM (inactive)
GI50 (SNB-19): > 100 µM (inactive)
GI50 (NCI-H522): 72.1 µM (inactive)
GI50 (HT-29): > 100 µM (inactive)
GI50 (HL-60): > 100 µM (inactive)
GI50 (MDA-MB-435): 84.5 µM (inactive)
GI50 (HCT-116): > 100 µM (inactive)
GI50 (HCT-15): > 100 µM
GI50 (NCI/ADR-RES): 72.1 µM (inactive)
GI50 (KM12): > 100 µM (inactive)
GI50 (Hs-578T): 49.5 µM (inactive)
GI50 (NCI-H460): 34 µM (inactive)
GI50 (OVCAR-3): 86.3 µM (inactive)
GI50 (A549): > 100 µM (inactive)
GI50 (SK-OV-3): > 100 µM (inactive)
GI50 (M14): > 100 µM (inactive)

O=C1Sc2ccccc2NC1=C(C(=O)c1ccccc1)C(=O)c1ccccc1
GI50 (BT-549): 35.9 µM (inactive)
GI50 (CAKI-1): 56.2 µM (inactive)
GI50 (TK-10): 26.1 µM (inactive)
GI50 (MDA-N): 33.7 µM (inactive)
GI50 (SNB-19): 33 µM (inactive)
GI50 (NCI-H522): 18.4 µM (inactive)
GI50 (HT-29): 22.5 µM (inactive)
GI50 (HL-60): 1.87 µM (inactive)
GI50 (MDA-MB-435): 40.6 µM (inactive)
GI50 (HCT-116): 18.7 µM (inactive)
GI50 (HCT-15): 19.5 µM
GI50 (NCI/ADR-RES): 22.3 µM (inactive)
GI50 (KM12): 31.6 µM (inactive)
GI50 (Hs-578T): 62.5 µM (inactive)
GI50 (NCI-H460): 9.95 µM (inactive)
GI50 (OVCAR-3): 5.18 µM (inactive)
GI50 (A549): 27.5 µM (inactive)
GI50 (SK-OV-3): 21.7 µM (inactive)
GI50 (M14): 15.2 µM (inactive)

COc1ccc2c(c1OC)OCC(CN(C)C)C2=O (configuration not stated)
GI50 (BT-549): 19.4 µM (inactive)
GI50 (CAKI-1): 3.01 µM (inactive)
GI50 (TK-10): 16.7 µM (inactive)
GI50 (MDA-N): 18.2 µM (inactive)
GI50 (SNB-19): > 100 µM (inactive)
GI50 (NCI-H522): 0.187 µM (active)
GI50 (HT-29): 15.4 µM (inactive)
GI50 (HL-60): 2.54 µM (inactive)
GI50 (MDA-MB-435): 19.5 µM (inactive)
GI50 (HCT-116): 17.4 µM (inactive)
GI50 (HCT-15): 18.1 µM
GI50 (NCI/ADR-RES): 27.7 µM (inactive)
GI50 (KM12): 16.5 µM (inactive)
GI50 (Hs-578T): 39.1 µM (inactive)
GI50 (NCI-H460): > 44.6 µM (inactive)
GI50 (OVCAR-3): 21.5 µM (inactive)
GI50 (A549): 26.1 µM (inactive)
GI50 (SK-OV-3): > 43.1 µM (inactive)
GI50 (M14): 17.3 µM (inactive)
